# Patent US20230405003A1, “APPLICATION OF THYMIDINE DERIVATIVE IN PREPARATION OF DRUGS” (ONQUALITY PHARMACEUTICALS CHINA LTD., priority 2020, published 2023)
# Columns and labels:
# [1] = system: human colon cancer cell HCT116 xenograft; assay: Effect of thymidine derivative gel on therapeutical effect of capecitabine, HCT116 xenograft nude mice; format: in vivo, mouse; settings: oral capecitabine 1.5 mmol/kg, 0.5% or 2% T1 gel on the back once per day, 14 days
# Experimental: A BALB/C nude mouse (human colon cancer cell HCT116 xenograft) model was established. After the model was stable, the model mice were divided into four groups (in which the average tumor size of each of the 4 groups was kept as consistent as possible). Except the blank group (containing 5 mice), there were 10 mice in each group, which were subject to gavage and application experiments.
# Capecitabine was dissolved in a mixed solution of castor oil:ethanol=1:1 (volume ratio). Prior to gavage, the mixture was diluted with PBS to the desired concentration (diluted for about 3 times with PBS solution). […]
# A: Group of blank: 5 mice with tumors, no gavage and no drug application; B: blank group: 10 mice with tumors, oral gavage with capecitabine (1.5 mmol/kg), application with blank gel on the back (once per day for 14 days); C: 0.5% T1 group: 10 mice with tumors, oral gavage of capecitabine, application with 0.5% T1 gel (administration method and frequency are the same as those in group B); D: 2% T1 gel group: 10 mice with tumors, oral gavage of capecitabine, application of 2% T1 gel (administration method and frequency are the same as those in group B). […] The tumor size was measured and recorded every 2 days. After 14 days of the experiment, the mice were dissected to take out the tumor, which was weighed and recorded.
# [2] = system: hand-foot syndrome caused by Doxorubicin in rats; assay: Rat model of hand-foot syndrome caused by doxorubicin, gel application; format: in vivo; settings: Doxorubicin 7 mg/kg tail intravenous injection once every three days for 20 days, gel 3 wt%, 30 days
# Experimental: After SD rats were fed and adapted for one week (about 200 g), the rats were divided into groups, with 10 rats in each group. Then, the rats were subject to gavage administration. Capecitabine was dissolved in a 1:1 mixed solution of castor oil and ethanol and diluted for three times with PBS buffer. After gavage, the rats were fixed with a fixed cylinder, and a gel of thymidine derivative (or a compounded gel of thymidine derivative and uridine derivative) was applied to double hind paws (about 1 cm*3 cm) of the rats in group of administration (the types and concentrations are shown in Table 4), and a blank gel was applied to the group of blank (as a blank control). After approximately 4 hours of application, the rats were released after 4 hours, wiped with clean water to remove any residual drug at the application site, and allowed back to the cage. The thymidine derivative gel (or the compounded gel of thymidine derivative and uridine derivative) was administered with gavage every day. The gavage and application tests are repeated daily until the group of blank has developed obvious hand-foot syndrome.
# The effects of thymidine derivative or a combination of thymidine derivative and uridine derivative on the chemotherapeutic drug-induced hand-foot syndrome in a rat model were tested according to the method in Examples 30-40. At the same time, paws of rats after treatment with the drug were taken and observed for their inflammation by hematoxylin-eosin staining (HE) and immunohistochemical staining (IHC).
# The test thymidine derivative or the combination of thymidine derivative and uridine derivative, as well as the final concentration of the test compounds were shown in Table 8. Table 8 lists the animal experiment combination of a chemotherapeutical drug and the thymidine derivative gel (or the compound gel of thymidine derivative and uridine derivative) and the corresponding experimental results (wherein, the data in the column of control rate=the occurrence rate of hand-foot syndrome in Group of blank—the occurrence rate of hand-foot syndrome in Group of administration).
SMILES,tumor volume with T1 gel versus blank gel [1],Control Rate Forepaws [2] [%],Control Rate Hindpaws [2] [%]
CC(=O)OCC1OC(n2cc(C)c(=O)[nH]c2=O)CC1OC(C)=O (stereo not drawn) [T1],close to or slightly smaller than that of Group of blank gel,,
COc1ccc2cc([C@H](C)C(=O)OC[C@H]3O[C@@H](n4cc(C)c(=O)[nH]c4=O)C[C@@H]3O)ccc2c1 [T25],,37.50,62.50
